Data taken from patent US20220142977A1, “METHODS OF TREATING CONDITIONS RELATED TO THE S1P1 RECEPTOR” (ARENA PHARMACEUTICALS, INC., priority 2019, published 2022).
Where a name gives a salt, the structure may show the parent alone.

Assays:
[1] = test system: patients with moderate to severe ulcerative colitis; assay: Randomized, double-blind, placebo-controlled dose-ranging study in ulcerative colitis: efficacy (Mayo scores, endoscopic improvement, remission); assay type: in vivo, human; details: for improvement in 2-component Mayo Score (0 to 6) relative to placebo / improvement in Total Mayo Score (0 to 12) relative to placebo: Week 12
Description: A randomized, double-blind, placebo-controlled, parallel-group, dose-ranging study to assess safety and efficacy of two orally administered doses (1 mg and 2 mg) of Compound 1 in patients with ulcerative colitis was conducted. The table below provides a summary of demographic data by treatment group.
Patients were randomized into a double-blind, placebo-controlled study to receive once daily (q.d.) doses of the L-arginine salt of Compound 1 (1 mg or 2 mg) or matching placebo in a 1:1:1 ratio for 12 weeks. The trial enrolled 156 patients with moderate to severe ulcerative colitis (3-component Mayo score of 4-9 that includes endoscopic subscore ≥2, rectal bleeding score ≥1).
The treatment formulation was composed of immediate-release, hard gelatin capsules containing L-arginine salt of Compound 1. The placebo was composed of hard gelatin capsules containing microcrystalline cellulose.
Patients were instructed to take their capsule on an empty stomach (overnight fast of approximately 8 hours) and to avoid eating for approximately 1 hour after dosing.
The primary objective of this proof-of-concept study was to determine the effect of treatment with the L-arginine salt of Compound 1 in changing 3-component Mayo Clinic score (score ranging from 0 to 9, including stool frequency, rectal bleeding and findings on endoscopy) at 12 weeks.
Secondary endpoints were the proportion of patients who achieve endoscopic improvement at Week 12; change in 2-component Mayo Score (score ranging from 0 to 6, including rectal bleeding and findings on endoscopy) at Week 12; and change in Total Mayo Score (score ranging from 0 to 12, including stool frequency, rectal bleeding, findings on endoscopy, and physician global assessment) at Week 12.
Exploratory endpoints included change from baseline in lymphocyte counts at Weeks 1, 2, 4, 8, and 12; proportion of patients achieving clinical remission at Week 12; and proportion of patients who achieve clinical response at Week 12.
ANCOVA model, adjusted for current oral corticosteroid use, prior exposure to TNF-alpha antagonists, and baseline value, was used to estimate changes in Mayo Clinic Score. Mantel-Haenszel method (estimated treatment difference by adjusting current oral corticosteroid use and prior exposure to TNF-alpha antagonists) used to estimate proportion difference for dichotomous parameters. Missing individual Mayo subscores impacting efficacy measures were imputed using multiple imputation methodology with observed case analysis for sensitivity. Statistical testing was pre-specified as one-sided with p<0.025 reflecting conventional statistical significance. Hierarchical closed testing procedure for primary and secondary endpoints at 0.05 alpha level was used.

[2] = test system: patients with moderate to severe ulcerative colitis; assay: Same study: safety and tolerability (TEAEs, heart rate, AV conduction, LFTs, infections); assay type: in vivo, human

SMILES | improvement in individuals with prior vedolizumab use or a history of pancolitis (subgroup analyses) ([1]; subgroups, 2 mg, week 12 (FIGS. 3A-3D)) | improvement in 3-component Partial Mayo Score (0 to 9) relative to placebo ([1]; 1 mg q.d. oral, week 12, p=0.146, not significant) | improvement in 2-component Mayo Score (0 to 6) relative to placebo ([1]; 1 mg, p=0.086, not significant) | improvement in Total Mayo Score (0 to 12) relative to placebo ([1]; 1 mg, p=0.128, not significant) | improvement in 3-component Partial Mayo Score (0 to 9) relative to placebo ([1]; 2 mg q.d. oral, week 12, p=0.009) | improvement in Total Mayo Score (0 to 12) relative to placebo ([1]; 2 mg, p=0.010) | improvement in 2-component Mayo Score (0 to 6) relative to placebo ([1]; dose not printed (2 mg implied), p=0.002) | primary and all secondary endpoints ([1]; high dose (2 mg), week 12) | serious adverse events (SAEs), % of patients ([2]; 2 mg, placebo 11.1%) [%] | heart rate on hourly ECGs (in words) ([2]; Day 1, both 1 mg and 2 mg groups) | mean change in heart rate on hourly ECGs ([2]; Day 1, either group (1 mg, 2 mg), any timepoint) [bpm] | severity of adverse events in infections and infestations ([2]; assessed by investigators, majority upper respiratory tract infections) | increases in liver function tests (LFTs) compared to placebo ([2]; in vivo) | reports of macular edema ([2]; in vivo) | reports of pulmonary function test abnormalities ([2]; in vivo) | serious adverse events related to heart rate changes or AV block ([2]; in vivo) | discontinuations from study related to bradycardia or AV block ([2]; throughout the study) | impact on heart rate and AV conduction ([2]; throughout the study)
O=C(O)C[C@H]1CCc2c1[nH]c1ccc(OCc3ccc(C4CCCC4)c(C(F)(F)F)c3)cc21 [Compound 1, (R)-2-(7-(4-cyclopentyl-3-(trifluoromethyl)benzyloxy)-1,2,3,4-tetrahydrocyclopenta[b]indol-3-yl)acetic acid] | improvement is not seen |  |  |  |  |  |  |  |  |  |  |  |  |  |  |  |  | 
O=C(O)C[C@H]1CCc2c1[nH]c1ccc(OCc3ccc(C4CCCC4)c(C(F)(F)F)c3)cc21 [L-arginine salt of Compound 1] |  | 0.43 | 0.39 | 0.60 | 0.99 | 1.27 | 0.84 | achieved the primary and all secondary endpoints with statistical significance | 0 | mild decrease | < 10 | mild or moderate | no increases | no reports | no reports | No serious adverse events | no discontinuations | low
